Drawing on US20250092065A1, “2-(INDAZOL-5-YL)-6-(PIPERIDIN-4-YL)-1,7-NAPHTHYRIDINE DERIVATIVES AND RELATED COMPOUNDS AS MODULATORS FOR SPLICING NUCLEIC ACIDS AND FOR THE TREATMENT OF PROLIFERATIVE DISEASES” (REMIX THERAPEUTICS INC., priority 2022, published 2025), this text covers IC50 for twelve compounds.

The test system of one experiment is MYB. The experiment is described as follows: HiBiT protein abundance assay, MYB (K562 HiBiT knock-in). The format is cell-based, human. As to conditions: HiBiT knock-in K562 cells, 24 hours, top dose 10 μM. Summed up: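 Steps: seed HiBiT knock-in K562 cells; add compound in 10-point 3-fold series from 10 μM final; incubate 24 h, 37 °C; add lytic HiBiT reagent, shake 5 min, wait 10 min; read luminescence. Normalize to parental K562 and DMSO controls, fit 4PL, take IC50.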
Background: With HiBiT, luminescence reflects the tagged protein that the partner subunit can reach.

The next experiment concerns SMN2 mRNA. The experiment can be described thus: RT-qPCR splicing assay, SMN2 mRNA. The class given is cell-based, human. The following applies: Homo sapiens, canonical junction qPCR panel, Table 4; read-out: SMN2 IC50 (decrease in CJ mRNA levels). Summed up:
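A673 or K562 cells treated 24 h at 37 °C with an 11-point 3-fold dilution series (top 10 uM, DMSO ≤0.25%). Lysates went directly to one-step RT-qPCR quantifying canonical (CJ) and alternative-exon (AJ) junctions, normalized to GAPDH, GUSB or PPIA. Values from ΔΔCt versus DMSO, RQ = 2^(−ΔΔCt), expressed as percentage response.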
Background: In qPCR the cycle at which signal appears reflects the starting amount.

For the compound `Cn1cc2cc(-c3ccc4nc(N5CC[C@H](N[C@H]6C[C@@H](F)C6)C5)ccc4n3)c(O)cc2n1` [Compound 299, 2-methyl-5-{6-[(3S)-3-{[(1s,3s)-3-fluorocyclobutyl]amino}pyrrolidin-1-yl]-1,5-naphthyridin-2-yl}indazol-6-ol], the 50% inhibitory concentration (IC50) in the experiment with MYB and in the experiment with SMN2 mRNA was less than 100 nM in each case.
Turning to `Cc1c(O)c(-c2ccc3nc(N4CCC(NC5COC5)C4)ccc3n2)cc2cn(C)nc12` (stereo not drawn) [Compound 302, 2,7-dimethyl-5-{6-[3-(oxetan-3-ylamino)pyrrolidin-1-yl]-1,5-naphthyridin-2-yl}Indazol-6-ol], the 50% inhibitory concentration (IC50) (in general, the concentration at which inhibition is half-maximal) is 100 to 1000 nM in the experiment on MYB and less than 100 nM in the experiment with SMN2 mRNA.
Taken in the same sequence, the figures for `Cc1nc2c(C)c(O)c(-c3ccc4nc(N5CCC(NC6(C)CC6)C5)ccc4n3)cc2o1` (stereo not drawn) [Compound 309, 2,4-dimethyl-6-(6-{3-[(1-methylcyclopropyl)amino]pyrrolidin-1-yl}-1,5-naphthyridin-2-yl)-1,3-benzoxazol-5-ol] were less than 100 nM and less than 100 nM.
Taken in the same sequence, the figures for `Cc1nc2c(C)c(O)c(-c3ccc4nc(N5CCC(NC(C)C)C5)ccc4n3)cc2o1` (stereo not drawn) [Compound 312, 6-{6-[3-(isopropylamino)pyrrolidin-1-yl]-1,5-naphthyridin-2-yl}-2,4-dimethyl-1,3-benzoxazol-5-ol] were less than 100 nM and less than 100 nM.
Taken in the same sequence, the figures for `Cn1cc2cc(-c3ccc4nc(N5CCC(NC6CCC6)C5)ccc4n3)c(O)c(F)c2n1` (stereo not drawn) [Compound 315, 5-{6-[3-(cyclobutylamino)pyrrolidin-1-yl]-1,5-naphthyridin-2-yl}-7-fluoro-2-methylindazol-6-ol] were less than 100 nM and less than 100 nM.
`Cc1c(O)c(-c2ccc3nc(N4CCC(NC(C)C)C4)ccc3n2)cc2cn(C)nc12` (stereo not drawn) [Compound 318, 5-{6-[3-(isopropylamino)pyrrolidin-1-yl]-1,5-naphthyridin-2-yl}-2,7-dimethylindazol-6-ol]: the half-inhibitory concentration (IC50) in the experiment on MYB and in the experiment with SMN2 mRNA was less than 100 nM throughout.
On to `Cc1c(O)c(-c2ccc3nc(N4CC[C@H](NC(C)C)C4)ccc3n2)cc2cn(C)nc12` [Compound 320], for which the IC50 in the experiment with MYB and in the experiment with SMN2 mRNA was less than 100 nM each time.
For `Cc1nc2c(F)c(O)c(-c3ccc4nc(N5CCC(NC6(C)CC6)C5)ccc4n3)cc2o1` (stereo not drawn) [Compound 325, 4-fluoro-2-methyl-6-(6-{3-[(1-methylcyclopropyl)amino]pyrrolidin-1-yl}-1,5-naphthyridin-2-yl)-1,3-benzoxazol-5-ol], the IC50 with MYB and with SMN2 mRNA was less than 100 nM throughout.
Regarding `Cc1nc2c(F)c(O)c(-c3ccc4nc(N5CCC(NC(C)C)C5)ccc4n3)cc2o1` (stereo not drawn) [Compound 328, 4-fluoro-6-{6-[3-(isopropylamino)pyrrolidin-1-yl]-1,5-naphthyridin-2-yl}-2-methyl-1,3-benzoxazol-5-ol], the IC50 in the experiment with MYB and in the experiment on SMN2 mRNA was less than 100 nM throughout.
Take `CN[C@@H]1CCN(c2ccc3nc(-c4cc(F)c5nc(C)cn5c4)ncc3n2)C1` [Compound 331, (3R)-1-(2-{8-fluoro-2-methylimidazo[1,2-a]pyridin-6-yl}pyrido[3,2-d]pyrimidin-6-yl)-N-methylpyrrolidin-3-amine]: the values for the 50% inhibitory concentration (IC50) with MYB and in the experiment on SMN2 mRNA were 100 to 1000 nM and less than 100 nM, respectively.
Take `CN[C@H]1CCN(c2ccc3nc(-c4cc(F)c5nc(C)cn5c4)ncc3n2)C1` [Compound 332, (S)-1-(2-(8-fluoro-2-methylimidazo[1,2-a]pyridin-6-yl)pyrido[3,2-d]pyrimidin-6-yl)-N-methylpyrrolidin-3-amine]: the IC50 in the experiment on MYB was 100 to 1000 nM; with SMN2 mRNA, less than 100 nM.
With `CC(C)(C)NC1CCN(c2ccc3nc(-c4cc5oc(C6CC6)nc5cc4O)ccc3n2)C1` (stereo not drawn) [Compound 333, 6-{6-[3-(tert-butylamino)pyrrolidin-1-yl]-1,5-naphthyridin-2-yl}-2-cyclopropyl-1,3-benzoxazol-5-ol], the half-maximal inhibitory concentration (IC50) with MYB and in the experiment on SMN2 mRNA was 100 to 1000 nM in each case.
